Results reported in patent US11542240B2, “STK19 inhibitors for treatment of cancer” (TRUSTEES OF BOSTON UNIVERSITY, priority 2018, dated 2023).
Where two headings read alike, the source gives them in different places.

How the values were obtained:
Test in all cases: biochemical
Assay type in all cases: binding
[1] = target: panel of 468 diverse kinases (Homo sapiens, UniProt Q96D53); conditions: ADCK4; 1000 nM; read-out: Percent Control
[2] = target: panel of 468 diverse kinases (Homo sapiens, UniProt O94806); conditions: PRKD3; 1000 nM; read-out: Percent Control
[3] = target: panel of 468 diverse kinases (Homo sapiens, UniProt Q16659); conditions: ERK3; 1000 nM; read-out: Percent Control
[4] = target: panel of 468 diverse kinases (Homo sapiens, UniProt P54764); conditions: EPHA4; 1000 nM; read-out: Percent Control
[5] = target: panel of 468 diverse kinases (Homo sapiens, UniProt Q14164); conditions: IKK-epsilon; 1000 nM; read-out: Percent Control
[6] = target: panel of 468 diverse kinases (Homo sapiens, UniProt O00506); conditions: YSK1; 1000 nM; read-out: Percent Control
[7] = target: panel of 468 diverse kinases (Homo sapiens, UniProt O43683); conditions: BUB1; 1000 nM; read-out: Percent Control
[8] = target: panel of 468 diverse kinases (Homo sapiens, UniProt Q9Y6R4); conditions: MAP3K4; 1000 nM; read-out: Percent Control
[9] = target: panel of 468 diverse kinases (Homo sapiens, UniProt P24723); conditions: PRKCH; 1000 nM; read-out: Percent Control
[10] = target: panel of 468 diverse kinases (Homo sapiens, UniProt Q9BZL6); conditions: PRKD2; 1000 nM; read-out: Percent Control
[11] = target: panel of 468 diverse kinases (Homo sapiens, UniProt Q16566); conditions: CAMK4; 1000 nM; read-out: Percent Control
[12] = target: panel of 468 diverse kinases (Homo sapiens, UniProt P49841); conditions: GSK3B; 1000 nM; read-out: Percent Control
[13] = target: panel of 468 diverse kinases (Homo sapiens, UniProt O15264); conditions: p38-delta; 1000 nM; read-out: Percent Control
[14] = target: panel of 468 diverse kinases (Homo sapiens, UniProt P16234); conditions: PDGFRA; 1000 nM; read-out: Percent Control
Chain of panel of 468 diverse kinases (Homo sapiens, UniProt P16234) (P16234 24-1089 limits assumed): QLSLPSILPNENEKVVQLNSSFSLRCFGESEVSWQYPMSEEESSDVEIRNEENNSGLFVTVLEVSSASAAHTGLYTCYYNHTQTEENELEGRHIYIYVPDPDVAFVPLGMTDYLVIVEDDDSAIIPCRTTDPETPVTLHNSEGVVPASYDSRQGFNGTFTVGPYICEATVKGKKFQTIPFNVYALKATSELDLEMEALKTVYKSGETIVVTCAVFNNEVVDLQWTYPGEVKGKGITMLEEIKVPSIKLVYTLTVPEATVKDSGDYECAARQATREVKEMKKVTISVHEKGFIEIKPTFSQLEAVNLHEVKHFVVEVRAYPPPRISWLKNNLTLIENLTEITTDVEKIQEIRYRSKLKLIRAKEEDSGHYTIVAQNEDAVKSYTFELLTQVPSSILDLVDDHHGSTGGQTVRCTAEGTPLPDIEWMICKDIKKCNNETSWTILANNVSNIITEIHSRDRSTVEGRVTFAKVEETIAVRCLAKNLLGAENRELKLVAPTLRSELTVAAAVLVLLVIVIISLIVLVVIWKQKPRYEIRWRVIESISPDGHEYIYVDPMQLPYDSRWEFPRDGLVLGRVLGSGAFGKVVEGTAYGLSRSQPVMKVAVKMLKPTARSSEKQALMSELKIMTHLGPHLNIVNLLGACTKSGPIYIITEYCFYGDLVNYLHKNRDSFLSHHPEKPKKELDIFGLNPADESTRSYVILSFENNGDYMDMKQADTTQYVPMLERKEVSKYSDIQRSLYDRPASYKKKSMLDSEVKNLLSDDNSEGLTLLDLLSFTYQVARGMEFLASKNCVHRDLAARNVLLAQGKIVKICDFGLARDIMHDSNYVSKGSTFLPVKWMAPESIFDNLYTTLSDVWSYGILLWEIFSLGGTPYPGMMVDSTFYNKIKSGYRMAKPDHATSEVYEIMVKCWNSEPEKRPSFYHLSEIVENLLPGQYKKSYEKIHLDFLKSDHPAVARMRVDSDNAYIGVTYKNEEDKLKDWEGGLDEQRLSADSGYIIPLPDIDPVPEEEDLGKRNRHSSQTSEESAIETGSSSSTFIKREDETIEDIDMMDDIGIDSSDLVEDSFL

[15] = target: panel of 468 diverse kinases (Homo sapiens, UniProt Q9H2X6); conditions: HIPK2; 1000 nM; read-out: Percent Control
[16] = target: panel of 468 diverse kinases (Homo sapiens, UniProt P36888, N841I); conditions: FLT3(N841I); 1000 nM; read-out: Percent Control
[17] = target: panel of 468 diverse kinases (Homo sapiens, UniProt Q13163); conditions: MEK5; 1000 nM; read-out: Percent Control
[18] = target: panel of 468 diverse kinases (Homo sapiens, UniProt P42345); conditions: MTOR; 1000 nM; read-out: Percent Control
[19] = target: panel of 468 diverse kinases (Homo sapiens, UniProt Q8IWQ3); conditions: BRSK2; 1000 nM; read-out: Percent Control
[20] = target: panel of 468 diverse kinases (Homo sapiens, UniProt Q9Y2H1); conditions: NDR2; 1000 nM; read-out: Percent Control
Chain of panel of 468 diverse kinases (Homo sapiens, UniProt Q9Y2H1) (Q9Y2H1 2-464 limits assumed): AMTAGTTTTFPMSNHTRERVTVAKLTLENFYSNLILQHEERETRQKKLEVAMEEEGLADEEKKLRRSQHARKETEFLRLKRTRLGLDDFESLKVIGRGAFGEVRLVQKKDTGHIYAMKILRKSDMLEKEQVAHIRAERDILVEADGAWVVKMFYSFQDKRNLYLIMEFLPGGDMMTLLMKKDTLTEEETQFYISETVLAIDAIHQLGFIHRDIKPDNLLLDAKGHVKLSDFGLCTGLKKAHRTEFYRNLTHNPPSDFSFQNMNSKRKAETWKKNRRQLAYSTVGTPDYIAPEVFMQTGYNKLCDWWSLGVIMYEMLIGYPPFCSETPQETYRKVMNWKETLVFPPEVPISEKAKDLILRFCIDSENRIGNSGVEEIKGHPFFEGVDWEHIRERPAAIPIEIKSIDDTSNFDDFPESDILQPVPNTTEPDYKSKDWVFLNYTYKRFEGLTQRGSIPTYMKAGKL

[21] = target: panel of 468 diverse kinases (Homo sapiens, UniProt Q8TBX8); conditions: PIP5K2C; 1000 nM; read-out: Percent Control
Chain of panel of 468 diverse kinases (Homo sapiens, UniProt Q8TBX8) (Q8TBX8 2-421 limits assumed): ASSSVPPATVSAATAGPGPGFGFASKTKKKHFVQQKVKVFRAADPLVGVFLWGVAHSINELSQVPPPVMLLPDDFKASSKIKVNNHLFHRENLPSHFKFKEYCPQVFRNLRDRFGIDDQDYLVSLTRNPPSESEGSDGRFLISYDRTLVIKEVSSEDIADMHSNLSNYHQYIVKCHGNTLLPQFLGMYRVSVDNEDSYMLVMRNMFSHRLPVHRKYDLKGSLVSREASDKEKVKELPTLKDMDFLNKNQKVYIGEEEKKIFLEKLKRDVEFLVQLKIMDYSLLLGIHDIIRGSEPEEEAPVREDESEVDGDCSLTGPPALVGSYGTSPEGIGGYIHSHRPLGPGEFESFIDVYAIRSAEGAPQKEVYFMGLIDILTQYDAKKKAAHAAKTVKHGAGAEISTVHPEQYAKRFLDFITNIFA

[22] = target: panel of 468 diverse kinases (Homo sapiens, UniProt P41240); conditions: CSK; 1000 nM; read-out: Percent Control
Chain of panel of 468 diverse kinases (Homo sapiens, UniProt P41240) (P41240 2-450 limits assumed): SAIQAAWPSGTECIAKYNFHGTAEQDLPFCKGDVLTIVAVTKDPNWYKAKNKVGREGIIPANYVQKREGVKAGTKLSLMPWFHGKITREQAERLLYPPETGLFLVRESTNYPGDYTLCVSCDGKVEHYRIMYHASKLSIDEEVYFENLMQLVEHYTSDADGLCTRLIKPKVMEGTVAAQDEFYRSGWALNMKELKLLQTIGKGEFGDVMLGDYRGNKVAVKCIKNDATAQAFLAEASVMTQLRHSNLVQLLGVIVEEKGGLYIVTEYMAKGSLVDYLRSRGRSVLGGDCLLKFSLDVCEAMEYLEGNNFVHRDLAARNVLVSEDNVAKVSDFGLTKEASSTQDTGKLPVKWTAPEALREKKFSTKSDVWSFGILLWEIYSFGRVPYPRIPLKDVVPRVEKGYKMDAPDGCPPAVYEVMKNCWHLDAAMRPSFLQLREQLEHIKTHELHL

[23] = target: panel of 468 diverse kinases (Homo sapiens, UniProt Q52WX2); conditions: SBK1; 1000 nM; read-out: Percent Control
[24] = target: panel of 468 diverse kinases (Homo sapiens, UniProt P28482); conditions: ERK2; 1000 nM; read-out: Percent Control
Chain of panel of 468 diverse kinases (Homo sapiens, UniProt P28482) (P28482 2-360 limits assumed): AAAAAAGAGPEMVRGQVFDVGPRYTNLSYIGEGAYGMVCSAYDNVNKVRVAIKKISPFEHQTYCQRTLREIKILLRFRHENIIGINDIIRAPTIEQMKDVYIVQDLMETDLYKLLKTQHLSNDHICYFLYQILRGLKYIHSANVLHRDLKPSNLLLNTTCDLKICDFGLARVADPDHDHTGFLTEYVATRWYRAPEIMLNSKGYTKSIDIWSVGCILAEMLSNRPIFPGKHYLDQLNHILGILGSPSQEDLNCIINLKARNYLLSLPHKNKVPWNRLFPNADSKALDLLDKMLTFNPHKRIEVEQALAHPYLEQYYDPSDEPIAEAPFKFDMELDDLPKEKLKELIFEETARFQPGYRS

[25] = target: panel of 468 diverse kinases (Homo sapiens, UniProt P36888); conditions: 1000 nM, read-out: Percent Control
[26] = target: panel of 468 diverse kinases (Homo sapiens, UniProt P21127); conditions: CDC2L1; 1000 nM; read-out: Percent Control
[27] = target: panel of 468 diverse kinases (Homo sapiens, UniProt Q13557); conditions: CAMK2D; 1000 nM; read-out: Percent Control
Chain of panel of 468 diverse kinases (Homo sapiens, UniProt Q13557) (Q13557 2-499 limits assumed): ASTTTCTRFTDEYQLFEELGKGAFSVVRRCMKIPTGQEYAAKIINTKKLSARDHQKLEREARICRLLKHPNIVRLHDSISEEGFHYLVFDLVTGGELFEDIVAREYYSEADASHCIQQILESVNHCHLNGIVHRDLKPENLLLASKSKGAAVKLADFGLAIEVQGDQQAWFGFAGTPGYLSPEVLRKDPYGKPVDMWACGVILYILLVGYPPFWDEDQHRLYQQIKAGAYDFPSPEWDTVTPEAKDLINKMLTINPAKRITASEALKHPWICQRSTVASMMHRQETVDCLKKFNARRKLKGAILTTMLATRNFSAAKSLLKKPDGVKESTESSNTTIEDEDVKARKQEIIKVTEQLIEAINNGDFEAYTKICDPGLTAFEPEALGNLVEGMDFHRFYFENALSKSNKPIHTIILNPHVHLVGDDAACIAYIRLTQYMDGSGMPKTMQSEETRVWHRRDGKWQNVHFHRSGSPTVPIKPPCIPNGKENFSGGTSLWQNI

[28] = target: panel of 468 diverse kinases (Homo sapiens, UniProt P11802); conditions: 1000 nM, read-out: Percent Control
Chain of panel of 468 diverse kinases (Homo sapiens, UniProt P11802) (P11802 2-303 limits assumed): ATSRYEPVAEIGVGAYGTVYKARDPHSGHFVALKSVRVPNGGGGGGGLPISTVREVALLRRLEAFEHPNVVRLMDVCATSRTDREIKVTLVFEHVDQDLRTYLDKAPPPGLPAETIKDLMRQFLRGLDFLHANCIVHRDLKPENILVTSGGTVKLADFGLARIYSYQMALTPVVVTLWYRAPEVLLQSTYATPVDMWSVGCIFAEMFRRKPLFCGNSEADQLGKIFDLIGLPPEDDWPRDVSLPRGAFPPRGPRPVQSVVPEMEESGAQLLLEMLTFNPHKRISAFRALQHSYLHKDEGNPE

[29] = target: panel of 468 diverse kinases (Homo sapiens, UniProt O15111); conditions: IKK-alpha; 1000 nM; read-out: Percent Control
[30] = target: panel of 468 diverse kinases (Homo sapiens, UniProt P00533, DEL752-759); conditions: EGFR(S752-I759del); 1000 nM; read-out: Percent Control
Chain of panel of 468 diverse kinases (Homo sapiens, UniProt P00533, DEL752-759) (P00533 with tags, fused parts or gaps DEL752-759 limits assumed): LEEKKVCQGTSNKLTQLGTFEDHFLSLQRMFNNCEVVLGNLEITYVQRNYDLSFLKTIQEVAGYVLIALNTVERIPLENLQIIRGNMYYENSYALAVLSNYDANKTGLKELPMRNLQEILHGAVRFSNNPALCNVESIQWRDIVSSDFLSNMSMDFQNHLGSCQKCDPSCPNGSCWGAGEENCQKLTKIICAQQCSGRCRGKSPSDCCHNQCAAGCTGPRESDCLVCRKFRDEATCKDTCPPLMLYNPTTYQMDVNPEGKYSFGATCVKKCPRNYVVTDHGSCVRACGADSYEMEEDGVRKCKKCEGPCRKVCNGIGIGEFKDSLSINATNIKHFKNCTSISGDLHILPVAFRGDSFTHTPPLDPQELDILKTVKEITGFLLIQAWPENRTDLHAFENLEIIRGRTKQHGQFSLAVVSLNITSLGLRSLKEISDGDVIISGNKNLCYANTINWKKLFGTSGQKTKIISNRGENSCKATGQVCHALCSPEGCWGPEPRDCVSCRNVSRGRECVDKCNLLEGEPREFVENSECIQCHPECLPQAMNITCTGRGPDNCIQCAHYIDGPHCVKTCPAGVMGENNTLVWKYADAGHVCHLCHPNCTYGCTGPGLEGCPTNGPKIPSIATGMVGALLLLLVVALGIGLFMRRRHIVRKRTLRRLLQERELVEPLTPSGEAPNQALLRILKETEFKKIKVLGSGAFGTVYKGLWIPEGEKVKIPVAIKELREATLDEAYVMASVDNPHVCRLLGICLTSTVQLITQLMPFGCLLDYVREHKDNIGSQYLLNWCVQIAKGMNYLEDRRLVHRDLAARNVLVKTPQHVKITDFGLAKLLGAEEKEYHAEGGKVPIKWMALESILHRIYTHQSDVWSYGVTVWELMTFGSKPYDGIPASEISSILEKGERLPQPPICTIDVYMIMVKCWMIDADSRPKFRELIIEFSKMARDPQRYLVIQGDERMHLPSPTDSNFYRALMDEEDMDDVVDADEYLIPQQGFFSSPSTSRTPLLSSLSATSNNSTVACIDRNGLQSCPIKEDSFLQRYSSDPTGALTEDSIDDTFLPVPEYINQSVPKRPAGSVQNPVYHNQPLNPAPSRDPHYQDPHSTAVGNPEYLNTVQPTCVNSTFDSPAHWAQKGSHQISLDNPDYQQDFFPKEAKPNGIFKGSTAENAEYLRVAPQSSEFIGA

[31] = target: panel of 468 diverse kinases (Homo sapiens, UniProt P31751); conditions: AKT2; 1000 nM; read-out: Percent Control

Question: With COc1cc2nc(NC3CC3)nc(NC3CCN(C(C)C)CC3)c2cc1OC [Formula IV] as the compound, how does the remaining activity at 1 µM [1] read?
Answer: Its remaining activity at 1 µM is 100%.

Question: What about the remaining activity at 1 µM [2] of the same compound?
Answer: Its remaining activity at 1 µM is 91%.

Question: What about the remaining activity at 1 µM [3] of the same compound?
Answer: Its remaining activity at 1 µM is 90%.

Question: And the remaining activity at 1 µM [4]?
Answer: Its remaining activity at 1 µM is 100%.

Question: And the remaining activity at 1 µM [5]?
Answer: The remaining activity at 1 µM was 84%.

Question: What about the remaining activity at 1 µM [6] of the same compound?
Answer: The remaining activity at 1 µM was 98%.

Question: And the remaining activity at 1 µM [7]?
Answer: Its remaining activity at 1 µM is 63%.

Question: What about the remaining activity at 1 µM [8] of the same compound?
Answer: Its remaining activity at 1 µM is 100%.

Question: What about the remaining activity at 1 µM [9] of the same compound?
Answer: The remaining activity at 1 µM was 81%.

Question: What about the remaining activity at 1 µM [10] of the same compound?
Answer: The remaining activity at 1 µM was 64%.

Question: What about the remaining activity at 1 µM [11] of the same compound?
Answer: Its remaining activity at 1 µM is 98%.

Question: And the remaining activity at 1 µM [12]?
Answer: The remaining activity at 1 µM was 72%.

Question: What about the remaining activity at 1 µM [13] of the same compound?
Answer: Its remaining activity at 1 µM is 98%.

Question: And the remaining activity at 1 µM [14]?
Answer: Its remaining activity at 1 µM is 75%.

Question: And the remaining activity at 1 µM [15]?
Answer: The remaining activity at 1 µM was 64%.

Question: What about the remaining activity at 1 µM [16] of the same compound?
Answer: Its remaining activity at 1 µM is 63%.

Question: What about the remaining activity at 1 µM [17] of the same compound?
Answer: The remaining activity at 1 µM was 60%.

Question: And the remaining activity at 1 µM [18]?
Answer: The remaining activity at 1 µM was 87%.

Question: And the remaining activity at 1 µM [19]?
Answer: The remaining activity at 1 µM was 100%.

Question: What about the remaining activity at 1 µM [20] of the same compound?
Answer: Its remaining activity at 1 µM is 100%.

Question: What about the remaining activity at 1 µM [21] of the same compound?
Answer: Its remaining activity at 1 µM is 80%.

Question: And the remaining activity at 1 µM [22]?
Answer: The remaining activity at 1 µM was 98%.

Question: What about the remaining activity at 1 µM [23] of the same compound?
Answer: The remaining activity at 1 µM was 64%.

Question: What about the remaining activity at 1 µM [24] of the same compound?
Answer: Its remaining activity at 1 µM is 81%.

Question: And the remaining activity at 1 µM ([25]; FLT3-autoinhibited)?
Answer: Its remaining activity at 1 µM is 51%.

Question: And the remaining activity at 1 µM ([25]; FLT3)?
Answer: Its remaining activity at 1 µM is 100%.

Question: What about the remaining activity at 1 µM [26] of the same compound?
Answer: Its remaining activity at 1 µM is 100%.

Question: What about the remaining activity at 1 µM [27] of the same compound?
Answer: Its remaining activity at 1 µM is 89%.

Question: What about the remaining activity at 1 µM ([28]; CDK4-cyclinD1) of the same compound?
Answer: Its remaining activity at 1 µM is 67%.

Question: And the remaining activity at 1 µM ([28]; CDK4-cyclinD3)?
Answer: The remaining activity at 1 µM was 54%.

Question: And the remaining activity at 1 µM ([28]; CDK4)?
Answer: Its remaining activity at 1 µM is 62%.

Question: And the remaining activity at 1 µM [29]?
Answer: Its remaining activity at 1 µM is 80%.

Question: What about the remaining activity at 1 µM [30] of the same compound?
Answer: The remaining activity at 1 µM was 100%.

Question: What about the remaining activity at 1 µM [31] of the same compound?
Answer: The remaining activity at 1 µM was 89%.
